Tests used:
Assay type in all cases: in vivo
Kochia (Kochia scoparia) [1] = assay: Test A preemergence; details: Bassia scoparia, pre-emergence, 240 h; for pest or weed control at 125 g/ha: 125 g ai/ha, Preemergence, visual injury rating after approximately 10 d, read-out: Kochia plant response rating (0 to 100 scale, 0 is no effect, 100 is complete control); for pest or weed control at 500 g/ha: 500 g ai/ha, preemergence, visual injury rating about 10 d after treatment, 0 to 100 scale (0 no effect, 100 complete control), read-out: Kochia plant response rating
In short: (§1)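 Preemergence directed soil spray on seeded pots, or postemergence application to plants 2–10 cm, one- to two-leaf. Solvent mixture non-phytotoxic, with surfactant. Scored ~10 d later, visually, 0–100 vs untreated.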

[2] = system: barnyardgrass (Echinochloa crus-galli); assay: Test A preemergence; details: Echinochloa crus-galli, pre-emergence, 240 h; for pest or weed control at 125 g/ha: 125 g ai/ha, Preemergence, visual injury rating after approximately 10 d, read-out: Barnyardgrass plant response rating (0 to 100 scale, 0 is no effect, 100 is complete control); for pest or weed control at 500 g/ha: 500 g ai/ha, preemergence, visual injury rating about 10 d after treatment, 0 to 100 scale (0 no effect, 100 complete control), read-out: Barnyardgrass plant response rating
In short: as §1

[3] = system: giant foxtail (Setaria faberii); assay: Test A preemergence; details: Setaria faberi, pre-emergence, 240 h; for pest or weed control at 125 g/ha: 125 g ai/ha, Preemergence, visual injury rating after approximately 10 d, read-out: Foxtail, Giant plant response rating (0 to 100 scale, 0 is no effect, 100 is complete control); for pest or weed control at 500 g/ha: 500 g ai/ha, preemergence, visual injury rating about 10 d after treatment, 0 to 100 scale (0 no effect, 100 complete control), read-out: Foxtail, Giant plant response rating
In short: as §1

[4] = system: pigweed (Amaranthus retroflexus); assay: Test A preemergence; details: Amaranthus retroflexus, pre-emergence, 240 h; for pest or weed control at 125 g/ha: 125 g ai/ha, Preemergence, visual injury rating after approximately 10 d, read-out: Pigweed plant response rating (0 to 100 scale, 0 is no effect, 100 is complete control); for pest or weed control at 500 g/ha: 500 g ai/ha, preemergence, visual injury rating about 10 d after treatment, 0 to 100 scale (0 no effect, 100 complete control), read-out: Pigweed plant response rating
[5] = system: ragweed (common ragweed, Ambrosia elatior); assay: Test A preemergence; details: Ambrosia artemisiifolia, pre-emergence, 240 h; for pest or weed control at 125 g/ha: 125 g ai/ha, Preemergence, visual injury rating after approximately 10 d, read-out: Ragweed plant response rating (0 to 100 scale, 0 is no effect, 100 is complete control); for pest or weed control at 500 g/ha: 500 g ai/ha, preemergence, visual injury rating about 10 d after treatment, 0 to 100 scale (0 no effect, 100 complete control), read-out: Ragweed plant response rating
In short: as §1

[6] = system: ryegrass, Italian (Italian ryegrass, Lolium multiflorum); assay: Test A preemergence; details: Lolium multiflorum, pre-emergence, 240 h; for pest or weed control at 125 g/ha: 125 g ai/ha, Preemergence, visual injury rating after approximately 10 d, read-out: Ryegrass, Italian plant response rating (0 to 100 scale, 0 is no effect, 100 is complete control); for pest or weed control at 500 g/ha: 500 g ai/ha, preemergence, visual injury rating about 10 d after treatment, 0 to 100 scale (0 no effect, 100 complete control), read-out: Ryegrass, Italian plant response rating
In short: as §1

[7] = system: Galium (catchweed bedstraw, Galium aparine); assay: Test A postemergence; details: Galium, post-emergence, 240 h, 125 g ai/ha, Postemergence; visual injury after approximately 10 d; 0 to 100 scale where 0 is no effect and 100 is complete control; read-out: Plant response rating, Galium
In short: as §1

Kochia (Kochia scoparia) [8] = assay: Test A postemergence; details: Bassia scoparia, post-emergence, 240 h, 125 g ai/ha, Postemergence; visual injury after approximately 10 d; 0 to 100 scale where 0 is no effect and 100 is complete control; read-out: Plant response rating, Kochia
In short: as §1

[9] = system: barnyardgrass (Echinochloa crus-galli); assay: Test A postemergence; details: Echinochloa crus-galli, post-emergence, 240 h, 125 g ai/ha, Postemergence; visual injury after approximately 10 d; 0 to 100 scale where 0 is no effect and 100 is complete control; read-out: Plant response rating, Barnyardgrass
In short: as §1

[10] = system: blackgrass (Alopecurus myosuroides); assay: Test A postemergence; details: Alopecurus myosuroides, post-emergence, 240 h, 125 g ai/ha, Postemergence; visual injury after approximately 10 d; 0 to 100 scale where 0 is no effect and 100 is complete control; read-out: Plant response rating, Blackgrass
In short: as §1

corn (Zea mays) = assay: Test A postemergence; details: Zea mays, post-emergence, 240 h, 125 g ai/ha, Postemergence; visual injury after approximately 10 d; 0 to 100 scale where 0 is no effect and 100 is complete control
In short: as §1

[11] = system: giant foxtail (Setaria faberii); assay: Test A postemergence; details: Setaria faberi, post-emergence, 240 h, 125 g ai/ha, Postemergence; visual injury after approximately 10 d; 0 to 100 scale where 0 is no effect and 100 is complete control; read-out: Plant response rating, Foxtail, Giant
In short: as §1

[12] = system: pigweed (Amaranthus retroflexus); assay: Test A postemergence; details: Amaranthus retroflexus, post-emergence, 240 h, 125 g ai/ha, Postemergence; visual injury after approximately 10 d; 0 to 100 scale where 0 is no effect and 100 is complete control; read-out: Plant response rating, Pigweed
In short: as §1

[13] = system: ragweed (common ragweed, Ambrosia elatior); assay: Test A postemergence; details: Ambrosia artemisiifolia, post-emergence, 240 h, 125 g ai/ha, Postemergence; visual injury after approximately 10 d; 0 to 100 scale where 0 is no effect and 100 is complete control; read-out: Plant response rating, Ragweed
In short: as §1

[14] = system: ryegrass, Italian (Italian ryegrass, Lolium multiflorum); assay: Test A postemergence; details: Lolium multiflorum, post-emergence, 240 h, 125 g ai/ha, Postemergence; visual injury after approximately 10 d; 0 to 100 scale where 0 is no effect and 100 is complete control; read-out: Plant response rating, Ryegrass, Italian
In short: as §1

[15] = system: wheat (Triticum aestivum); assay: Test A postemergence; details: Triticum aestivum, post-emergence, 240 h, 125 g ai/ha, Postemergence; visual injury after approximately 10 d; 0 to 100 scale where 0 is no effect and 100 is complete control; read-out: Plant response rating, Wheat
In short: as §1

[16] = system: barnyardgrass (Echinochloa crus-galli); assay: Test B flooded paddy test; details: Echinochloa crus-galli, Flood, 250 g ai/ha; scale of 0 to 100 where 0 is no effect and 100 is complete control; read-out: Barnyardgrass plant response rating
In short: (§2)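 Flooding to 3 cm over soil accompanied treatment, which consisted of adding compound to the standing water around 2-leaf plants; depth was then maintained. Visual assessment versus controls followed at 13 to 15 d (scale 0–100, 0 meaning no effect).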

[17] = system: ducksalad (Heteranthera limosa); assay: Test B flooded paddy test; details: Heteranthera limosa, Flood, 250 g ai/ha; scale of 0 to 100 where 0 is no effect and 100 is complete control; read-out: Ducksalad plant response rating
In short: as §2

rice (Oryra sativa) = assay: Test B flooded paddy test; details: Oryza sativa, Flood, 250 g ai/ha; scale of 0 to 100 where 0 is no effect and 100 is complete control; read-out: Rice plant response rating
In short: as §2

[18] = system: sedge, umbrella (small-flower umbrella sedge, Cyperus difformis); assay: Test B flooded paddy test; details: Cyperus difformis, Flood, 250 g ai/ha; scale of 0 to 100 where 0 is no effect and 100 is complete control; read-out: Sedge, Umbrella plant response rating
In short: as §2

Row | Compound | pest or weed control at 125 g/ha (Kochia (Kochia scoparia) [1]) [%] | pest or weed control at 500 g/ha (Kochia (Kochia scoparia) [1]) [%] | pest or weed control at 125 g/ha [2] [%] | pest or weed control at 500 g/ha [2] [%] | pest or weed control at 125 g/ha [3] [%] | pest or weed control at 500 g/ha [3] [%] | pest or weed control at 125 g/ha [4] [%] | pest or weed control at 500 g/ha [4] [%] | pest or weed control at 125 g/ha [5] [%] | pest or weed control at 500 g/ha [5] [%] | pest or weed control at 125 g/ha [6] [%] | pest or weed control at 500 g/ha [6] [%] | pest or weed control at 125 g/ha [7] [%] | pest or weed control at 125 g/ha (Kochia (Kochia scoparia) [8]) [%] | pest or weed control at 125 g/ha [9] [%] | pest or weed control at 125 g/ha [10] [%] | Corn plant response rating (crop injury, 0 = no effect, 100 = complete kill) at 125 g/ha (corn (Zea mays)) [%] | pest or weed control at 125 g/ha [11] [%] | pest or weed control at 125 g/ha [12] [%] | pest or weed control at 125 g/ha [13] [%] | further results
1 | O=C1NC[C@H](c2csc(C(F)(F)F)c2)[C@H]1C(=O)Nc1cccc(F)c1F [Compound 957] | 30 | 80 | 70 | 100 | 20 | 70 | 20 | 20 | 0 | 30 | 0 | 40 | 40 | 20 | 80 | 20 | 0 | 0 | 0 | 0 | pest or weed control at 125 g/ha [14]: 20%; plant injury at 125 g/ha [15]: 0%; pest or weed control at 250 g/ha [16]: 30%; pest or weed control at 250 g/ha [17]: 100%; pest or weed control at 250 g/ha (rice (Oryra sativa)): 0%; pest or weed control at 250 g/ha [18]: 0%
2 | O=C1NC[C@H](c2cc(C(F)(F)F)cs2)[C@H]1C(=O)Nc1ccccc1F [Compound 960] | 20 | 30 | 80 | 90 | 70 | 90 | 0 | 0 | 0 | 0 | 0 | 0 | 0 | 0 | 50 | 20 | 0 | 20 | 0 | 0 | pest or weed control at 125 g/ha [14]: 30%; plant injury at 125 g/ha [15]: 0%; pest or weed control at 250 g/ha [16]: 20%; pest or weed control at 250 g/ha [17]: 100%; pest or weed control at 250 g/ha (rice (Oryra sativa)): 0%; pest or weed control at 250 g/ha [18]: 65%

Source: patent US12077503B2, “Substituted cyclic amides and their use as herbicides” (FMC CORPORATION, priority 2015, dated 2024)
